The nature of the test: Antagonist activity at human CRTH2 receptor expressed in CEM cell assessed as inhibition of PGD2-induced cell migration after 3 hrs by transwell migration assay.

From BindingDB's records for doi:10.1016/j.bmcl.2009.10.094 (Amgen, 2009) come the findings set out here.

As to `CC(=O)N(c1ccccc1)[C@@H]1C[C@H](C)N(C(=O)c2ccccc2)c2ccccc21` (racemic) [(+/-)-cis-N-(1-benzoyl-2-methyl-1,2,3,4-tetrahydroquinolin-4-yl)-N-phenylacetamide], the EC50 (as a rule, the concentration that produces a half-maximal response) amounted to 0.011 µM.
